Where a name gives a salt, the structure may show the parent alone.
Biological target: T1, human M1 receptor (hCHRM1) (Homo sapiens, UniProt P11229)
T1 construct: expressed in transfected cells
T1 sequence (P11229 1-460): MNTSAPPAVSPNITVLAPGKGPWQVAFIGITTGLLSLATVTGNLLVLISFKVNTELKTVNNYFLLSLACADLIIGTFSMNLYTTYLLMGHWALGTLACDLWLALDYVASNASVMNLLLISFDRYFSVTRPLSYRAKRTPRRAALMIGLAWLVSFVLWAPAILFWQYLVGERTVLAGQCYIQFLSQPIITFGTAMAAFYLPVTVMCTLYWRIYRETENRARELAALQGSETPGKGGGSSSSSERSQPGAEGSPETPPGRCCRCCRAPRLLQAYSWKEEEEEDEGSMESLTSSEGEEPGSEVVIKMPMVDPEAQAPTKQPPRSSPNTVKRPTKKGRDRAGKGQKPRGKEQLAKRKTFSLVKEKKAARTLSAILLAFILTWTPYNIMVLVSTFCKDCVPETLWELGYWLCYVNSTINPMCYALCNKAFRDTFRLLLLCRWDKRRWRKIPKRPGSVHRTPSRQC
Assay: Measurement of M1 receptor positive allosteric modulator (M1PAM) activity, Ca2+ fluorescence by FLIPRtetra (Experimental Example 1)
Type: cell-based
Conditions: for activity (%) at 10 μM: 10 μM test compound, 100% = acetylcholine 1 μM, 0% = DMSO; for EC50: inflection point of concentration-dependent curve, in presence of acetylcholine at EC20 (0.8-1.0 nM), CHO-K1 cells expressing hCHRM1, read-out: IP value
Procedure: Measurement of M1 Receptor Positive Allosteric Modulator (M1PAM) Activity
The activity of a test compound in the presence of acetylcholine at EC20 concentration (final concentration 0.8-1.0 nM), which affords an action corresponding to about 20% of the maximum activity, was measured as PAM activity. The method is as follows. CHO-K1 cells stably expressing a human M1 receptor (hCHRM1) were plated on a 384-well black clear bottom plate (BD Falcon) at 5,000 cells/well, and cultured in an incubator at 37° C., 5% CO2 for 1 day. The medium in the cell plate was removed, and a dye solution (prepared by adding Recording medium (DOJINDO LABORATORIES) to a final concentration of 1×concentration, Fluo-4 AM (DOJINDO LABORATORIES) to a final concentration of 2.5 μg/mL, Pluronic F127 (DOJINDO LABORATORIES) to a final concentration of 0.08%, and probenecid (DOJINDO LABORATORIES) to a final concentration of 1.25 mM to assay buffer (HBSS (Invitrogen), 20 mM HEPES (Invitrogen), 0.1% BSA (Wako Pure Chemical Industries, Ltd.))) was added at 30 μL/well. The cells were left standing in the incubator at 37° C., 5% CO2 for 30 min, and further left standing at room temperature for 30 min. A test compound prepared by diluting with assay buffer containing 3.2-4.0 nM acetylcholine was added at 10 μL/well, and the fluorescence was measured by FLIPRtetra (Molecular Devices) for 1 min every 1 second. With the definition that the amount of change in the fluorescence on addition of acetylcholine (final concentration 1 μM) is 100% and that on addition of DMSO instead of a test compound is 0%, the activity (%) of the test compound was calculated, and the inflection point in the concentration-dependent curve of the test compound was calculated as IP values.

Structure (SMILES) | activity (%) at 10 μM [%] | EC50 [nM] | activity (%) at 10 μM (monohydrochloride) [%]
COc1c(Cc2ccc(-n3cccn3)nc2)cc2c(c1F)OCN([C@H]1CCC[C@@H]1O)C2=O (single isomer, unassigned) [Example 55, 8-fluoro-3-(trans-2-hydroxycyclopentyl)-7-methoxy-6-((6-(1H-pyrazol-1-yl)pyridin-3-yl)methyl)-2,3-dihydro-4H-1,3-benzoxazin-4-one (optical isomer)] | 98 | 14 | 
Cc1ccc(Cc2cc3c(c(C)c2C)OCN([C@H]2COCC[C@@H]2O)C3=O)cn1 (single isomer, unassigned) [Example 7, 1,5-anhydro-2,4-dideoxy-2-(7,8-dimethyl-6-((6-methylpyridin-3-yl)methyl)-4-oxo-2H-1,3-benzoxazin-3(4H)-yl)-threo-pentitol monohydrochloride (optical isomer)] | 108 | 7.9 | 
O=C1c2cc(CN3CC[S+]([O-])CC3)c3ccccc3c2OCN1[C@H]1CCC[C@@H]1O [Example 60, 3-((1S,2S)-2-hydroxycyclopentyl)-6-((1-oxidothiomorpholin-4-yl)methyl)-2,3-dihydro-4H-naphtho[2,1-e][1,3]oxazin-4-one] | 105 | 22 | 
Cc1ccc(Cc2cc3c(c(Cl)c2C)OCN(CC2CCCO2)C3=O)cn1 (stereo not shown) [Example 84, 8-chloro-7-methyl-6-((6-methylpyridin-3-yl)methyl)-3-(tetrahydrofuran-2-ylmethyl)-2,3-dihydro-4H-1,3-benzoxazin-4-one] | 93 | 96 | 
Cc1ccc(Cc2cc3c(c(C)c2C)OCN([C@H]2CCC[C@@H]2O)C3=O)cn1 [Example 11, 3-((1S,2S)-2-hydroxycyclopentyl)-7,8-dimethyl-6-((6-methylpyridin-3-yl)methyl)-2,3-dihydro-4H-1,3-benzoxazin-4-one] | 95 | 8.5 | 
Cc1cc2c(cc1Cc1ccc(C#N)cc1)C(=O)N([C@H]1CCC[C@@H]1O)CO2 [Example 67, 4-((3-((1S,2S)-2-hydroxycyclopentyl)-7-methyl-4-oxo-3,4-dihydro-2H-1,3-benzoxazin-6-yl)methyl)benzonitrile] | 98 | 46 | 
O=C1c2cc(Cc3ccc(Cl)nc3)c3ccccc3c2OCN1CC1CCCO1 (stereo not shown) [Example 76, 6-((6-chloropyridin-3-yl)methyl)-3-(tetrahydrofuran-2-ylmethyl)-2,3-dihydro-4H-naphtho[2,1-e][1,3]oxazin-4-one] | 93 | 63 | 
Cc1ccc(Cc2cc3c(c(F)c2C)OCN([C@H]2CCC[C@@H]2O)C3=O)cn1 [Example 20, 8-fluoro-3-((1S,2S)-2-hydroxycyclopentyl)-7-methyl-6-((6-methylpyridin-3-yl)methyl)-2,3-dihydro-4H-1,3-benzoxazin-4-one] | 85 | 24 | 
Cc1ccc(Cc2cc3c(c(C)c2C)OCN([C@H]2COCC[C@@H]2O)C3=O)cn1 [Example 137, 1,5-anhydro-2,4-dideoxy-2-(7,8-dimethyl-6-((6-methylpyridin-3-yl)methyl)-4-oxo-2H-1,3-benzoxazin-3(4H)-yl)-L-threo-pentitol] | 104 | 14 | 
Cc1ccc(Cc2cc3c(c4ccccc24)OCN(CC2CCCO2)C3=O)cn1 (stereo not shown) [Example 58, 6-((6-methylpyridin-3-yl)methyl)-3-(tetrahydrofuran-2-ylmethyl)-2,3-dihydro-4H-naphtho[2,1-e][1,3]oxazin-4-one] | 94 | 16 | 

The next compounds have a lower EC50 than those just listed; values first:

activity (%) at 10 μM [%] | EC50 [nM] | activity (%) at 10 μM (monohydrochloride) [%] | Structure (SMILES)
124 | 2 |  | C=Cc1ccc(Cc2cc3c(c4ccccc24)OCN([C@H]2COCC[C@@H]2O)C3=O)cn1 [Example 42, 1,5-anhydro-2,4-dideoxy-2-(4-oxo-6-((6-vinylpyridin-3-yl)methyl)-2H-naphtho[2,1-e][1,3]oxazin-3(4H)-yl)-L-threo-pentitol]
89 | 3.8 |  | O=C1c2cc(Cc3ccc(Cl)nc3)c3ccccc3c2OCN1[C@H]1COCC[C@@H]1O [Example 125, 1,5-anhydro-2-(6-((6-chloropyridin-3-yl)methyl)-4-oxo-2H-naphtho[2,1-e][1,3]oxazin-3(4H)-yl)-2,4-dideoxy-L-threo-pentitol]
109 | 1.2 |  | Cc1c(Cc2ccc(-c3ccn(C)n3)nc2)cc2c(c1C)OCN([C@H]1COCC[C@@H]1O)C2=O [Example 37, 1,5-anhydro-2,4-dideoxy-2-(7,8-dimethyl-6-((6-(1-methyl-1H-pyrazol-3-yl)pyridin-3-yl)methyl)-4-oxo-2H-1,3-benzoxazin-3(4H)-yl)-L-threo-pentitol]
 | 5.4 | 119 | Cc1ccc(Cc2cc3c(c(C)c2C)OCN([C@H]2CCC[C@@H]2O)C3=O)cn1 [Example 26, 3-((1S,2S)-2-hydroxycyclopentyl)-7,8-dimethyl-6-((6-methylpyridin-3-yl)methyl)-2,3-dihydro-4H-1,3-benzoxazin-4-one monohydrochloride]
102 | 7 |  | Cc1ccc(Cc2cc3c(c(Cl)c2C)OCN([C@H]2COCC[C@@H]2O)C3=O)cn1 [Example 6, 1,5-anhydro-2-(8-chloro-7-methyl-6-((6-methylpyridin-3-yl)methyl)-4-oxo-2H-1,3-benzoxazin-3(4H)-yl)-2,4-dideoxy-L-threo-pentitol]
105 | 0.69 |  | Cc1c(Cc2ccc(-c3ccn(C)n3)nc2)cc2c(c1F)OCN([C@H]1CCC[C@@H]1O)C2=O [Example 22, 8-fluoro-3-((1S,2S)-2-hydroxycyclopentyl)-7-methyl-6-((6-(1-methyl-1H-pyrazol-3-yl)pyridin-3-yl)methyl)-2,3-dihydro-4H-1,3-benzoxazin-4-one]
109 | 5.8 |  | Cc1cc2c(cc1Cc1ccc(-n3cccn3)cc1)C(=O)N([C@H]1CCC[C@@H]1O)CO2 [Example 35, 3-((1S,2S)-2-hydroxycyclopentyl)-7-methyl-6-(4-(1H-pyrazol-1-yl)benzyl)-2,3-dihydro-4H-1,3-benzoxazin-4-one]
96 | 1.8 |  | Cc1c(Cc2ccc(-n3cccn3)cc2)cc2c(c1F)OCN([C@H]1COCC[C@@H]1O)C2=O [Example 1, 8-fluoro-3-((3S,4S)-4-hydroxytetrahydro-2H-pyran-3-yl)-7-methyl-6-(4-(1H-pyrazol-1-yl)benzyl)-2,3-dihydro-4H-1,3-benzoxazin-4-one]
99 | 1.5 |  | CCc1ccc(Cc2cc3c(c4ccccc24)OCN([C@H]2COCC[C@@H]2O)C3=O)cn1 [Example 38, 1,5-anhydro-2,4-dideoxy-2-(6-((6-ethylpyridin-3-yl)methyl)-4-oxo-2H-naphtho[2,1-e][1,3]oxazin-3(4H)-yl)-L-threo-pentitol]
109 | 4.9 |  | COc1ccc(Cc2cc3c(c4ccccc24)OCN([C@H]2COCC[C@@H]2O)C3=O)cn1 [Example 46, 1,5-anhydro-2,4-dideoxy-2-(6-((6-methoxypyridin-3-yl)methyl)-4-oxo-2H-naphtho[2,1-e][1,3]oxazin-3(4H)-yl)-L-threo-pentitol]

From US10323027B2, “2,3-dihydro-4H-1,3-benzoxazin-4-one derivatives as modulators of cholinergic muscarinic M1 receptor” (Takeda Pharmaceutical Company Limited, priority 2015, dated 2019)
